Laboratory results as given in ChEMBL document CHEMBL1140021, “Ferulic acid and benzothiazole dimer derivatives with high binding affinity to beta-amyloid fibrils” (Bioorg Med Chem Lett, 2007).

Experiment: Displacement of [125I]TZDM from human beta amyloid fibril 1-42

Question: For `COc1cc(/C=C/C(=O)O)ccc1N1CCN(c2ccc(/C=C/C(=O)O)cc2OC)CC1`, which Ki is on record?
Answer: 1360 pM

Question: With `COc1cc(/C=C/C(=O)O)ccc1OCCOc1ccc(N(C)C)cc1OC` as the molecule, how does the Ki read?
Answer: 1000 pM

Question: With `Cc1ccc2nc(NCCNc3nc4ccc(C)cc4s3)sc2c1` as the molecule, how does the Ki read?
Answer: 810 pM

Question: For `COc1cc(/C=C/C(=O)O)ccc1OCCOc1ccc(N(CC(=O)O)CC(=O)O)cc1OC`, which Ki is on record?
Answer: 570 pM

Question: For `Fc1ccc2nc(NCCNc3nc4ccc(F)cc4s3)sc2c1`, which Ki is on record?
Answer: 750 pM

Question: With `Brc1ccc2nc(NCCNc3nc4ccc(Br)cc4s3)sc2c1` as the molecule, how does the Ki read?
Answer: 1110 pM

Question: For `Nc1ccc2nc(NCCNc3nc4ccc(N)cc4s3)sc2c1`, which Ki is on record?
Answer: 690 pM

Question: For `CS(=O)(=O)c1ccc2nc(NCCNc3nc4ccc(S(C)(=O)=O)cc4s3)sc2c1`, which Ki is on record?
Answer: > 10000 pM

Question: For `CN(CCN(C)c1nc2ccc(Cl)cc2s1)c1nc2ccc(Cl)cc2s1`, which Ki is on record?
Answer: 640 pM

Question: With `CN(CCN(C)c1nc2ccc(S(C)(=O)=O)cc2s1)c1nc2ccc(S(C)(=O)=O)cc2s1` as the molecule, how does the Ki read?
Answer: 550 pM

Question: With `CN(CCN(C)c1nc2ccc(N)cc2s1)c1nc2ccc(N)cc2s1` as the molecule, how does the Ki read?
Answer: 690 pM

Question: For `COc1cc(/C=C/C(=O)O)ccc1OCCOc1ccc(/C=C/C(=O)O)cc1OC`, which Ki is on record?
Answer: 600 pM

Question: For `CN(CCN(C)c1nc2ccccc2s1)c1nc2ccccc2s1`, which Ki is on record?
Answer: 530 pM

Question: With `CN(CCN(C)c1nc2ccc(F)cc2s1)c1nc2ccc(F)cc2s1` as the molecule, how does the Ki read?
Answer: 1370 pM

Question: For `CN(CCN(C)c1nc2ccc(Br)cc2s1)c1nc2ccc(Br)cc2s1`, which Ki is on record?
Answer: 550 pM

Question: Which Ki does the source give for `COc1cc(/C=C/C(=O)O)ccc1N(C)CCN(C)c1ccc(/C=C/C(=O)O)cc1OC` here?
Answer: 720 pM

Question: For `c1ccc2sc(NCCNc3nc4ccccc4s3)nc2c1`, which Ki is on record?
Answer: 710 pM

Question: With `Clc1ccc2nc(NCCNc3nc4ccc(Cl)cc4s3)sc2c1` as the molecule, how does the Ki read?
Answer: 960 pM

Question: With `Cc1ccc2nc(N(C)CCN(C)c3nc4ccc(C)cc4s3)sc2c1` as the molecule, how does the Ki read?
Answer: 610 pM

Question: Which Ki does the source give for `COc1cc(/C=C/C(=O)O)ccc1O` [FERULATE] here?
Answer: 770 pM

Question: For `[11CH3]Nc1ccc(-c2nc3ccc(O)cc3s2)cc1` [PITTSBURGH COMPOUND B], which Ki is on record?
Answer: 770 pM
